# Test results from PMC8955854, “The Peptide Hormone CNMa Influences Egg Production in the Mosquito Aedes aegypti” (Insects, 2022).
# Positions of bridges follow the written chain, without caps; N, C: chain ends. Residues, ends and D or L forms follow the SMILES beside them.
# How the values were obtained:
# [1] = biological target: AeCNMaR-1b (AAEL018316) (Aedes aegypti, UniProt A0A1S4G7J8); assay: Receptor activation, aequorin luminescence in CHO-K1 aeq cells expressing AeCNMaR-1b; format: cell-based
# Chain of AeCNMaR-1b (AAEL018316) (A0A1S4G7J8 entry or part of it): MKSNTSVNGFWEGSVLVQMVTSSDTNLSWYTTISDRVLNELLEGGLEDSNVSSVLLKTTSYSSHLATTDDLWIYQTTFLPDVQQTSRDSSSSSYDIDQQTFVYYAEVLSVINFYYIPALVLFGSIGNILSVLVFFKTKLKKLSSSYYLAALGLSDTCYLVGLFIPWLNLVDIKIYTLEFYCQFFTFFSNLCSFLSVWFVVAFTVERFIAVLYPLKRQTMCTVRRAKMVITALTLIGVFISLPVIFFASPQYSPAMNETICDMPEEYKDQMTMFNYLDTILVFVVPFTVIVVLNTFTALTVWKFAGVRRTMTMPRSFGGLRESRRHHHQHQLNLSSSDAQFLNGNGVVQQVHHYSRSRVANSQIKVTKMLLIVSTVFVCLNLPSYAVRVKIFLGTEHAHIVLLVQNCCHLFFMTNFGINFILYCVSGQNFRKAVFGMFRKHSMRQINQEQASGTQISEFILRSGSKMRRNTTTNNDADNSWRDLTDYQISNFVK
# Text: The CNMa peptide was synthesized and HPLC purified (>90% purity) by Royobiotechs (Shanghai, China) based on the published sequence of the AeCNMa peptide sequence. Both the amidated (YMSLCHFKLCNMa) and the non-amidated (YMSLCHFKLCNM) were produced with a disulfide bridge between cysteines 5 and 10. The complete coding sequence of the two putative Ae. aegypti CNMa receptors (VectorBase genes AAEL024199 and AAEL018316, which we henceforth refer to as AeCNMaR-1a and AeCNMaR-1b, respectively) were commercially synthesized (Integrated DNA Technologies) and subsequently subcloned into a pcDNA3.1+ mammalian expression vector [24]. A Chinese hamster ovary cell line stably expressing the calcium-dependent bioluminescent protein aequorin (CHO-K1 aeq) was grown in Dulbecco’s modified eagles medium: nutrient F12 (DMEM:F12) media containing 10% heat-inactivated fetal bovine serum (FBS; Wisent, St. Bruno, QC, Canada), 200 μg/mL geneticin, and an antimycotic-antibiotic mixture as described previously. […]
# Other Ae. aegypti peptides used in this study included “capability” (CAPA)-1 (GPTVGLFAFPRV-NH2), CAPA-2 (pQGLVPFPRV-NH2), AedaeCAPA-pyrokinin (PK) 1 (AGNSGANSGMWFGPRL-NH2), adipokinetic/corazonin-like peptide (ACP; pQVTFSRDWNA-NH2), adipokinetic hormone (AKH) (pQLTFTPSW-NH2), and corazonin (CRZ; pQTFQYSRGWTN-NH2). […] Single concentrations of the various peptides were loaded into individual wells of white 96-well luminescence plates (Greiner Bio-One, Frickenhausen, Germany) with each peptide concentration tested in quadruplicate. CHO-K1 aeq cells expressing either of the two AeCNMa receptors or mCherry were prepared for the functional assay, as described above, and injected into each well of the 96-well luminescence plates by an automated injector unit integrated with the Synergy 2 Multi-Mode Microplate Reader (BioTek, Winooski, VT, USA). The kinetic luminescent response was measured for 10 s immediately following the application of the cells into the wells containing the different peptide treatments or the negative (i.e., BSA media alone) or positive (i.e., 50 μM ATP) controls as described previously. Data was assembled in Microsoft Excel and then analyzed in GraphPad Prism 7.02 (GraphPad Software, San Diego, CA, USA) where the dose–response curves from multiple biological replicates were used to determine the half maximal effective concentrations (EC50).
# [2] = biological target: AeCNMaR-1a (AAEL024199) (Aedes aegypti, UniProt A0A6I8U3V2); assay: Receptor activation, aequorin luminescence in CHO-K1 aeq cells expressing AeCNMaR-1a; format: cell-based
# Chain of AeCNMaR-1a (AAEL024199) (A0A6I8U3V2 entry or part of it): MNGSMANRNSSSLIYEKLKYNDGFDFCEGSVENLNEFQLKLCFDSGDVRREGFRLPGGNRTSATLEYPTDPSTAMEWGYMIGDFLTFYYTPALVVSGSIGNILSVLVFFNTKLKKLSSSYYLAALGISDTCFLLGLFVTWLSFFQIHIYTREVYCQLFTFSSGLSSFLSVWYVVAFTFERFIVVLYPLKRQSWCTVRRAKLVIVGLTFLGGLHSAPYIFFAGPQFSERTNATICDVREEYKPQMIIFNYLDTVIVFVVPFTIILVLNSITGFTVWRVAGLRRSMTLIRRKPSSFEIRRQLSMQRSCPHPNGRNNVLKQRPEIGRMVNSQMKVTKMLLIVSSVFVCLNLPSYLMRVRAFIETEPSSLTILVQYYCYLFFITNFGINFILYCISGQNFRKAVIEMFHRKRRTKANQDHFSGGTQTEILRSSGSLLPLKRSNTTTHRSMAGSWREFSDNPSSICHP
# Text: The CNMa peptide was synthesized and HPLC purified (>90% purity) by Royobiotechs (Shanghai, China) based on the published sequence of the AeCNMa peptide sequence. Both the amidated (YMSLCHFKLCNMa) and the non-amidated (YMSLCHFKLCNM) were produced with a disulfide bridge between cysteines 5 and 10. The complete coding sequence of the two putative Ae. aegypti CNMa receptors (VectorBase genes AAEL024199 and AAEL018316, which we henceforth refer to as AeCNMaR-1a and AeCNMaR-1b, respectively) were commercially synthesized (Integrated DNA Technologies) and subsequently subcloned into a pcDNA3.1+ mammalian expression vector [24]. A Chinese hamster ovary cell line stably expressing the calcium-dependent bioluminescent protein aequorin (CHO-K1 aeq) was grown in Dulbecco’s modified eagles medium: nutrient F12 (DMEM:F12) media containing 10% heat-inactivated fetal bovine serum (FBS; Wisent, St. Bruno, QC, Canada), 200 μg/mL geneticin, and an antimycotic-antibiotic mixture as described previously. When cells reached 80–90% confluency, they were transfected using Lipofectamine 3000 transfection reagent following manufacturer recommendations (Life Technologies, Burlington, ON, Canada) to transiently express a mammalian construct in pcDNA3.1+ containing either of the two candidate CNMa receptors or mCherry (pcDNA3.1+ mCherry was a gift from Scott Gradia, Addgene plasmid #30125), the latter of which served as a negative control for the receptor functional assay. After 48 h following transfection, CHO-K1 aeq cells were harvested by dislodging from culture flasks using Dulbecco’s PBS containing EDTA and subsequently resuspended in receptor assay media.
# Other Ae. aegypti peptides used in this study included “capability” (CAPA)-1 (GPTVGLFAFPRV-NH2), CAPA-2 (pQGLVPFPRV-NH2), AedaeCAPA-pyrokinin (PK) 1 (AGNSGANSGMWFGPRL-NH2), adipokinetic/corazonin-like peptide (ACP; pQVTFSRDWNA-NH2), adipokinetic hormone (AKH) (pQLTFTPSW-NH2), and corazonin (CRZ; pQTFQYSRGWTN-NH2). Serial dilutions of the peptide stocks were prepared in bovine serum albumin (BSA) assay media (DMEM:F12 media + 0.1% BSA + 1× antibiotic-antimycotic) to test concentrations ranging from 10 pM to 50 μM. Single concentrations of the various peptides were loaded into individual wells of white 96-well luminescence plates (Greiner Bio-One, Frickenhausen, Germany) with each peptide concentration tested in quadruplicate. CHO-K1 aeq cells expressing either of the two AeCNMa receptors or mCherry were prepared for the functional assay, as described above, and injected into each well of the 96-well luminescence plates by an automated injector unit integrated with the Synergy 2 Multi-Mode Microplate Reader (BioTek, Winooski, VT, USA). The kinetic luminescent response was measured for 10 s immediately following the application of the cells into the wells containing the different peptide treatments or the negative (i.e., BSA media alone) or positive (i.e., 50 μM ATP) controls as described previously. Data was assembled in Microsoft Excel and then analyzed in GraphPad Prism 7.02 (GraphPad Software, San Diego, CA, USA) where the dose–response curves from multiple biological replicates were used to determine the half maximal effective concentrations (EC50).
compound,measurement,setting,value
"CSCC[C@H](NC(=O)[C@H](CC(N)=O)NC(=O)[C@@H]1CSSC[C@H](NC(=O)[C@H](CC(C)C)NC(=O)[C@H](CO)NC(=O)[C@H](CCSC)NC(=O)[C@@H](N)Cc2ccc(O)cc2)C(=O)N[C@@H](Cc2c[nH]cn2)C(=O)N[C@@H](Cc2ccccc2)C(=O)N[C@@H](CCCCN)C(=O)N[C@@H](CC(C)C)C(=O)N1)C(=O)O [AeCNM, YMSLCHFKLCNM] (H-YMSLCHFKLCNM-OH; disulfide 5-10)",EC50,[1],125 nM
same,EC50,[2],46.3 nM
